Data as given in patent publication US11702401B2, “Compounds and methods of use” (Medivation Technologies LLC, priority 2014, dated 2023).

Experiments:
[1] = Plasma and brain concentrations in male mice at 0.5 and 1 h; format: in vivo
[2] = Pharmacokinetics and bioavailability in male mice, oral single dose; format: in vivo; conditions: oral 10 mg/kg

Row | Structure (SMILES) | Brain Concentration ([1]; IV, 0.5 h) | Plasma Concentration ([1]; IV, 0.5 h) | Brain Concentration ([1]; IV, 1 h) | Plasma Concentration ([1]; IV, 1 h) | Brain Concentration ([1]; PO, 0.5 h) | Plasma Concentration ([1]; PO, 0.5 h) | Brain Concentration ([1]; PO, 1 h) | Plasma Concentration ([1]; PO, 1 h) | AUClast [2] | Tmax [2]
1 | CC(C)c1cnc(-c2cc(Cl)ccc2F)cc1Nc1ccncc1C(=O)NC(CO)CO [compound 22, 4-[[2-(5-chloro-2-fluoro-phenyl)-5-isopropyl-4-pyridyl]amino]-N-[2-hydroxy-1-(hydroxymethyl)ethyl]pyridine-3-carboxamide] | 7 nM | 1690 nM | 5 nM | 967 nM | 20 nM | 7070 nM | 15 nM | 3530 nM |  | 
2 | C[C@H](O)CNC(=O)c1cnccc1Nc1cc(-c2cc(Cl)ccc2F)ncc1N(C)C (single isomer, unassigned) [16a] | 48 nM | 3040 nM | 19 nM | 1230 nM | 48 nM | 3420 nM | 25 nM | 1690 nM | 7.50 µM·h | 30 min
